The source of these data is PMC4171664 (Diabetes, 2014).

The target in the assay is T1, I-A^g7 (Mus musculus, UniProt P04228+Q31135).
T1 sequence (P04228 24-256): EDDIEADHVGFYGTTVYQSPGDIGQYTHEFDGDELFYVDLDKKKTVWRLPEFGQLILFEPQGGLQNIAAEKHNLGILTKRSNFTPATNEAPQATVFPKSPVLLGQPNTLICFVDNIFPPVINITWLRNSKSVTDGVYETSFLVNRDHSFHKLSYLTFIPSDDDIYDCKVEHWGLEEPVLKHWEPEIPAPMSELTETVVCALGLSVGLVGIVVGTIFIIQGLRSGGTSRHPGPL
T1 sequence (Q31135 1-263): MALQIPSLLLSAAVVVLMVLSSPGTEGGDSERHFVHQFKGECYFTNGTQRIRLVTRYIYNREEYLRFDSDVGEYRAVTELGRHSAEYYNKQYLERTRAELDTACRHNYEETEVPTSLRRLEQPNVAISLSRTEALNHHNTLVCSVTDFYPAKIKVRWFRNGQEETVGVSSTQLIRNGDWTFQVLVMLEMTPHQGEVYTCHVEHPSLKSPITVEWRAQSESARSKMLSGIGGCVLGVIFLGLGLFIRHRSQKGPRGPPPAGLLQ
The class given is binding, NOD mouse.

No end group written: not given here.

Turning to AVDGVISVHSLHIW [292–305], 5.1 µM corresponded to half-maximal inhibition (IC50). This lies in the single-digit micromolar range. The value for GHVAGSLAILTDAA [91–104] was 0.6 µM; that for GYNHKDVQANASVR [201–214] was 88.2 µM.

Sequence LTIQIESAADQDPSC [345–359] showed an IC50 of 1.1 µM. The value for RTGIAQALSSFDLHS [330–344] was 5.7 µM. The same measure for SVRAAFVHALGDVF [212–225]: 0.6 µM.
